From PubChem BioAssay (NCI)
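These data come from cells grown in 96-well plates and exposed to compound for 48 hours at five concentrations. TGI marks complete inhibition of growth.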

Legend:
Test in all cases: inhibition of tumour cell growth, NCI panel, 48 h
[1] = test system: HOP-18 NSCLC
[2] = test system: SNB-78 CNS
[3] = test system: M19-MEL melanoma
[4] = test system: DMS 114 small cell lung
[5] = test system: DMS 273 small cell lung
[6] = test system: LXFL 529 NSCLC
[7] = test system: XF 498 CNS
[8] = test system: KM20L2 colon

Row | Structure (SMILES) | TGI [1] [µM] | TGI [2] [µM] | TGI [3] [µM] | TGI [4] [µM] | TGI [5] [µM] | TGI [6] [µM] | TGI [7] [µM] | TGI [8] [µM]
1 | CC(Oc1ccc(Oc2cnc3ccc(Cl)cc3n2)cc1)C(=O)O (centres undefined) | > 100 | > 100 | > 100 | > 100 | > 100 | > 100 | > 100 | > 100
2 | CC1(C)OC(=S)N(c2ccccc2)C12C=Cc1cc3ccccc3nc1S2 (centres undefined) |  |  | > 100 | > 100 | > 100 | > 100 | > 100 | > 100
3 | O=c1cc(-c2ccccc2)[nH]c2cc(F)cc(F)c12 | > 100 |  | > 100 | 93.2 | > 100 | > 100 |  | 
